Assays:
[1] = In situ single-pass intestinal perfusion (SPIP), saponins administrated in monomer forms; type: in vivo; settings: male, Sprague-Dawley, rat, other: in situ single-pass intestinal perfusion
Experimental: (§1) MDQ-TS perfusion samples at low, middle, and high concentration levels of 1.25, 2.5, and 5.0 mg·mL^−1 were prepared by separately dissolving MDQ-TS in the minimum amount of DMSO and diluted with K-R buffer solution. The amount of DMSO was 0.5% in the final perfusion solutions. C1, C2, C3, C4, DC1, and DC2 perfusion samples with the concentration equivalent to the amount contained in 2.5 mg·mL^−1 of MDQ-TS were individually prepared in the same way. Verapamil, amantadine and EDTA were directly dissolved in the MDQ-TS perfusate with terminal concentrations of 200 μmol·L^−1, 2.5 mmol·L^−1, and 2.5 mmol·L^−1, accordingly, and used for investigating the mechanisms involved for absorption.
(§2) In situ single-pass intestinal perfusion (SPIP) studies were performed using an experimental design adapted from the literature with some modifications. Briefly, male Sprague-Dawley rats weighing 180–220 g were acclimatized for at least one week before the experiment, and fasted for 18 h with free access to water before the perfusion experiment. Rats were anesthetized with an intraperitoneal injection of urethane (30 mg·kg^−1 body weight), and kept on a homeothermic blanket to maintain normal body temperature. The abdomen was opened with a midline longitudinal incision, and three segments of rat intestine (duodenum, jejunum, and ileum) of approximately 10 cm each were carefully cannulated on two ends with plastic tubing. Initially, the perfusion solution free of drug (37 °C) was pumped by peristaltic pump (BT100-1F, Longer Pump Co., Baoding, China) through the cannulated segments at a flow rate of 1 mL/min for approximately 30 min in order to clean out any residual debris. Secondly, the perfusion solution containing a known concentration of substance (C1, C2, C3, C4, DC1, DC2, and MDQ-TS) was perfused at 37 °C through the intestinal lumen at a constant flow rate of 0.2 mL/min. The first 20 min of period corresponds to steady state, i.e., when the substance is in equilibrium with the intestinal membrane. After steady state, samples were collected from distal portion of duodenum, jejunum and ileum at 10 min intervals (0–10, 10–20, 20–30, 30–40, 40–50, 50–60 min) in pre-weighted vials. Samples were immediately frozen at −20 °C until analysis by validated UPLC. During the experiment, care was taken to avoid disturbance of the circulatory system and the exposed segment was covered with a piece of sterilized gauze to keep it warm and moist by frequent application of warm (37 °C) saline. The intestinum tenue maintained its viability and intact state without disrupting the blood supply throughout the experimental period. Finally, animals were sacrificed after depth anesthesia by intraperitoneal injection of urethane, according to protocols for euthanasia in experimental animals. After death, the intestinal segment was removed for measurements of length and inside diameter.
(§3) The net water flux in the in situ perfusion studies (water absorption and efflux in the intestinal segment) was determined by gravimetric method. The effective absorption rate constant (Ka) and effective apparent permeability (Papp) of compounds in the intestinal segments were calculated according to the following mathematical expression:(1) Ka=(1−CoutQout/CinQin)Q/V (2) Papp=−Qln(CoutQout/CinQin)/2πrl where Cin and Cout are the concentration of test drug in the effluent perfusate through the inlet and outlet tube (μg·mL^−1), respectively. Qin and Qout represent the inlet and outlet volume of effluent perfusate (mL), respectively. Q is the volume flow rate of perfusion (mL·h^−1). V is the volume of the intestinal segment concerned (mL). 2πrl is the area of the mass transfer surface of intestinal segment concerned (cm^2).

[2] = tested on: rat small intestine (duodenum, jejunum, ileum); experiment: as above; type: in vivo; settings: for Ka / Papp: monomer form, n = 5
Experimental: as §1, §2, §3

[3] = Apparent oil-water partition coefficient, shake-flask method; type: physicochemical; settings: n-octanol / phosphate buffer pH 1.2-9.0, 37 °C; Kow = log Co/(Ct−Co)
Experimental: The equilibrium partitioning of C1, C2, C3, C4, DC1, and DC2 between organic lipid and water (Kow) was determined in our study by the traditional shake-flask method (SFM). Briefly, 0.5 mL of each saponin standard working solution (100 µg·mL^−1 in water-saturated n-octanol) was accurately measured into 5 mL centrifuge tubes, and spiked with 0.5 mL of different phosphate buffer solutions (pH: 1.2, 2.0, 3.6, 5.8, 6.8, 7.4, 7.8, and 9.0), respectively. After vortex-mixing for 45 min, the tubes were kept in a temperature-stable horizontal shaking bath (37 °C) for 24 h, and then centrifuged at 13,000 rpm for 10 min. Two hundred microliters of organic supernatant solution was measured, diluted with 800 µL of methanol, and mixed well. Ten microliters of the final solution was injected into the HPLC system (detailed experimental conditions and method validation results were not shown) for determination of the drug concentration in the n-octanol phase. The Kow values of the six saponins were calculated according to the following mathematical expression:(3) Kow=logCo/Ct−Co where Ct is the total concentration of the drug, and Co is the concentration of the drug in n-octanol phase.

rat duodenum [4] = experiment: SPIP of MDQ-TS with or without amantadine (endocytosis inhibitor); type: in vivo; settings: MDQ-TS 2.5 mg/mL, amantadine 2.5 mmol·L^−1
Experimental: as §1, §2
as §3, with “(cm^2). […]” for “(cm^2).”

[5] = In situ single-pass intestinal perfusion (SPIP), saponins administrated in MDQ-TS form; type: in vivo, rat; settings: male, Sprague-Dawley, rat, other: in situ single-pass intestinal perfusion
How it was run: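 Fasted, urethane-anaesthetised male Sprague-Dawley rats had ~10 cm duodenum, jejunum and ileum segments perfused at 37 °C, 0.2 mL/min, with MDQ-TS at 1.25, 2.5 or 5.0 mg·mL^−1 in K-R buffer (0.5% DMSO). After 20 min steady state, effluent was collected every 10 min to 60 min and analysed by UPLC. Water flux was corrected gravimetrically, and Ka and Papp were calculated.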

rat duodenum [6] = experiment: SPIP of MDQ-TS with or without verapamil (P-gp inhibitor); type: in vivo; settings: MDQ-TS 2.5 mg/mL, verapamil 200 μmol·L^−1
Experimental: as §1, §2
as §3, with “(cm^2). […]” for “(cm^2).”

CC1CCC2(C(=O)OC3OC(CO)C(O)C(O)C3O)CCC3(C)C(=CCC4C5(C)CCC(O)C(C)(C(=O)O)C5CCC43C)C2C1(C)O (stereo not drawn) [C2, ilexsaponin A1]
Papp ([1]; administered in monomer forms, summary bound): > 20 ×10⁻⁶ cm/s | Papp ([1]; monomer form, duodenum, concentration equivalent to 2.5 mg·mL^−1 MDQ-TS, n = 5): 40 ×10⁻⁶ cm/s | Papp ([1]; monomer form, ileum, n = 5): 41.7 ×10⁻⁶ cm/s | Papp ([1]; monomer form, jejunum, n = 5): 41.7 ×10⁻⁶ cm/s | Ka ([2]; duodenum, concentration equivalent to 2.5 mg·mL^−1 MDQ-TS): 1.40 ± 0.29 ×10^−2 min^−1 | Ka ([2]; ileum): 1.62 ± 0.32 ×10^−2 min^−1 | Papp ([2]; ileum): 0.25 ± 0.03 ×10^−2 cm·min^−1 | Ka ([2]; jejunum): 1.72 ± 0.16 ×10^−2 min^−1 | Papp ([2]; jejunum): 0.25 ± 0.01 ×10^−2 cm·min^−1 | permeability classification ([2]; monomers, Papp > 0.12 × 10^−2 cm·min^−1 classified as completely absorbed (highly permeable)): highly permeable | apparent oil-water partition coefficient (Kow) [3]: −1 to 2 | decrease of absorption compared with non-Amantadine added group (rat duodenum [4]): 71% | Papp ([5]; MDQ-TS form 1.25 mg·mL^−1, duodenum, n = 5): 28.3 ×10⁻⁶ cm/s | Papp ([5]; MDQ-TS form 1.25 mg·mL^−1, ileum, n = 5): 23.3 ×10⁻⁶ cm/s | Papp ([5]; MDQ-TS form 1.25 mg·mL^−1, jejunum, n = 5): 28.3 ×10⁻⁶ cm/s | Papp ([5]; MDQ-TS form 2.5 mg·mL^−1, duodenum, n = 5): 45 ×10⁻⁶ cm/s | Papp ([5]; MDQ-TS form 2.5 mg·mL^−1, ileum, n = 5): 46.7 ×10⁻⁶ cm/s | Papp ([5]; MDQ-TS form 2.5 mg·mL^−1, jejunum, n = 5): 43.3 ×10⁻⁶ cm/s | Papp ([5]; MDQ-TS form 5.0 mg·mL^−1, duodenum, n = 5): 36.7 ×10⁻⁶ cm/s | Papp ([5]; MDQ-TS form 5.0 mg·mL^−1, ileum, n = 5): 23.3 ×10⁻⁶ cm/s | Papp ([5]; MDQ-TS form 5.0 mg·mL^−1, jejunum, n = 5): 33.3 ×10⁻⁶ cm/s | Papp ([5]; administrated in MDQ-TS form, summary bound (except DC2 in 1.25 mg·mL^−1 MDQ-TS group)): > 20 ×10⁻⁶ cm/s | Ka increase in comparison with non-Verapamil added group (rat duodenum [6]): ~4.2 fold | Papp increase in comparison with non-Verapamil added group (rat duodenum [6]): about 2.3 fold
